Test results taken from patent US11559590B2, “Granzyme B directed imaging and therapy” (The General Hospital Corporation, priority 2016, dated 2023).
Read-outs that look alike come from different tables or passages of the source. One block for each molecule: values may come before it. Non-standard residues stand in square brackets, D forms with d. Residues, ends and D or L forms follow the SMILES beside them. Primed or numbered codes have the meaning given here. No end group written: not given here. *: point of attachment. X1 = O=C(O)CN1CCN(CC(=O)O)CC(Cc2ccc(NC(=S)*)cc2)N(CC(=O)O)CC1; PEG27′ = polyethylene glycol linker of 27 —(OCH2CH2)— units; Biotin = O=C1N[C@H]2[C@H](CS[C@H]2CCCCC(=O)*)N1; NOTA = O=C(O)CN1CCN(CC(=O)O)CCN(CC(=O)*)CC1; βAla = NCCC(=O)O

Key:
granzyme B [1] = molecular target: T1, granzyme B (Mus musculus, UniProt P04187); test: Binding of ^68Ga-NOTA-GP to purified granzyme B adsorbed to plates vs BSA; set-up: purchased R&D systems; conditions: 1 h binding, bound tracer counted by gamma counter, 6 replicates
T1 sequence (P04187 21-247): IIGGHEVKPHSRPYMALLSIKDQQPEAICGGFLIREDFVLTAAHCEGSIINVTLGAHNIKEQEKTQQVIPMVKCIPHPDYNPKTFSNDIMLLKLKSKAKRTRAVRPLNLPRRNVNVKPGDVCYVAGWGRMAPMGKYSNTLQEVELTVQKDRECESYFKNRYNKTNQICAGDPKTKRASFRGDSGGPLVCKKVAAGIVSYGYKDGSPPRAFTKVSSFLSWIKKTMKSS
Procedure: Granzyme B was adsorbed to plates and the plates were blocked with non-fat milk. The ^68Ga-NOTA-GP was permitted to bind for 1 h, the wells washed, and bound ^68Ga-NOTA-GP recovered by incubation with 2N NaOH and counted by gamma counter. […] The bars in FIG. 4 represent the mean of 6 replicates±SD.

granzyme B [2] = molecular target: T1, granzyme B; type: in vivo, mice; set-up: from tissue; host or cells: CT26 (BALB/C) and MC38 syngeneic tumours in living mice; granzyme B from infiltrating host lymphocytes
Procedure: For imaging studies, mice were treated with intraperitoneal injection of either vehicle, 200 μg anti-PD-1 murine therapeutic antibody (αPD1), or both 200 μg αPD1 and 100 μg anti-CTLA-4 murine therapeutic antibody (αCTLA-4) on days 3, 6, and 9 following CT-26 tumor inoculation. 1×10^6 BP cells were diluted 1:1 with Matrigel and injected in the right shoulder of female C57BL/6 mice. Once tumors had reached 3-5 mm in diameter, mice were treated with daily oral gavage of vehicle or dabrafenib prepared in aqueous suspension with 0.5% hydroxypropylmethyl cellulose (HPMC) and 0.2% Tween. One day following initiation of BRAF inhibition, mice were additionally randomized to intraperitoneal injection with 200 μg αPD1 as specified. Mice were sacrificed on specified day either for Western blot and immunohistochemistry alone, or following imaging for correlative analysis. Mice were imaged on a GE Triumph PET/CT. Following CT acquisition, PET images were obtained for 15 min in 2 bed positions. Images were constructed using 3D-OSEM (4 iterations, 16 subsets) and corrected for scatter and randoms. The mean standard uptake value (SUVmean) for each tumor was calculated in a 3D region of interest auto-drawn around the tumor using a 30% isocontour threshold. Region of interests were also calculated for left ventricle, liver lung, muscle, and kidney. Images were post-processed using VivoQuant (InviCRO, Boston, Mass.). On day 14 post-inoculation, mice were injected with ˜37 MBq of purified ^68Ga-NOTA-GP intravenously and imaged at 1 h post-injection. […] The mean TBR of treated mice was calculated at 1.69±0.26, whereas the mean TBR of untreated mice was 0.93±0.11, a significant increase (83%, P<0.05) from untreated to treated mice, as shown in FIG. 11. ^68Ga-NOTA-GP uptake was observed across both treated and untreated tumors.

granzyme B [3] = molecular target: T1, granzyme B; test: Response prediction using granzyme B PET imaging across CT26 and MC38 models; type: in vivo, mice; set-up: from tissue; host or cells: CT26 (BALB/C) and MC38 syngeneic tumours in living mice; granzyme B from infiltrating host lymphocytes; conditions: CT26 and MC38, all therapies
Description: As a measure of the accuracy of granzyme B PET (i.e., GZP PET) imaging-based response prediction across multiple tumor models and therapies described in Examples 9-11, classifications of uptake using TBR thresholds of 1.27 for CT26 tumors and 1.45 for MC38 tumors were utilized. […] This reflects an overall sensitivity and specificity of 93% and 89% respectively for the ability of ^68Ga-GZP PET to predict immunotherapy response.

CT26 cells = test: Binding of ^68Ga-NOTA-GP to CT26 cells with or without pre-incubation with granzyme B; type: cell-based; conditions: 100 μCi/mL, pre-incubated with granzyme B (60 nM) or vehicle, 30 min
Procedure: CT26 cells were plated in 96 well plates and grown to 70% confluency. ^68Ga-NOTA-GP was diluted to 100 μCi/mL in 1% BSA plus RPMI buffer and either pre-incubated with granzyme B (60 nM) or vehicle prior to addition to wells. The peptide was incubated with cells for 30 min prior to washing and elution with 2M NaOH.

CT26 tumors [4] = test: Ex vivo tumor to blood ratio by gamma counter in CT26 tumor bearing mice; conditions: day 14, 1 h post-injection
Procedure: After confirming the ^68Ga-NOTA-GP bound to purified granzyme B and specifically accumulated in target cells, the in vivo tumor accumulation was investigated in CT26 tumor bearing mice using the same model used to generate the Western blot data from Example 2 (see FIG. 1). On day 14 post-inoculation, mice were injected with […] of ^68Ga-NOTA-GP and mice were sacrificed at 1 h following injection. Tumors and blood were collected from 7 mice that were treated with combination therapy (ant-PD-1 and CTLA-4). The tumors were grouped based on size as either responders (mass<[…]) or non-responders (mass≥[…]) The amount of radioactive ^68Ga-NOTA-GP in both the tumor and blood were quantified using a gamma counter and the adjusted based on mass and the ratio of injected dose per gram of tumor to blood (TBR) was plotted for tumors in each group.

[5] = Ex vivo bio-distribution at 1 h and 2 h post-injection; type: in vivo, mice; conditions: mouse, tumor, iv, 1 mCi, total radioactivity; for tissue uptake at 1 h: 1 h post-injection; for tissue uptake at 2 h: 2 h post-injection
Procedure: (§1) Following injection with ˜1 mCi of ^68Ga-NOTA-GP (see Example 1) via tail-vein mice were sacrificed at either one-hour or two-hour time-points. Mouse urine, blood, tumor, and vital organs were sampled, and radioactivity assessed on a gamma-counter.
(§2) Following imaging, mice were sacrificed and tumoral GZB expression quantified by Western blot. […] Tumoral uptake of treated tumors was measured at 1.15% ID/g at 1 h and 1.02% ID/g at 2 h in comparison to 0.70 and 0.55% ID/g in untreated control tumors, as shown in FIG. 7B.

CT26 tumors [6] = test: as above; type: in vivo, mice; conditions: 1 h and 2 h post-injection
Procedure: as §1, §2

tumor = conditions: mouse, in vivo
Description: Both peptides were designed to test the effects of additional groups on the pharmacokinetics and tumor to background ratios in mice.

human granzyme B [7] = molecular target: T2, human granzyme B (Homo sapiens, UniProt P10144); test: Immunohistochemistry and immunofluorescence of human melanoma specimens with hGZP; type: binding; conditions: treated responder melanoma samples, IHC and immunofluorescence
T2 construct: from tissue; host or cells: formalin-fixed paraffin-embedded human melanoma biopsy sections
T2 sequence (P10144 21-247): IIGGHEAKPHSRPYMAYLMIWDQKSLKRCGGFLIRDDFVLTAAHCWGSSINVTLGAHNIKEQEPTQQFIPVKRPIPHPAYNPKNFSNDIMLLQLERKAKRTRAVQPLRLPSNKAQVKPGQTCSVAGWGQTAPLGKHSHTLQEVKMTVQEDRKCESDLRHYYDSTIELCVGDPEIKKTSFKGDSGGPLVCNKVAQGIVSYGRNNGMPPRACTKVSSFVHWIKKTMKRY
Procedure: Immunohistochemistry was performed on formalin-fixed paraffin-embedded sections following standard antigen retrieval in citrate buffer. Granzyme B expression was detected with either an anti-Granzyme B antibody (ab5049, Abcam) or a biotinylated and humanized version of GZP (hGZP, see Example 1A). Bound antibody was detected with either HRP-conjugated goat anti-rabbit antibody and reacted with DAB substrate for IHC staining or AlexaFluor 488 goat anti-rabbit or AlexaFluor 594 goat anti-rabbit antibodies (Life Technologies) for immunofluorescent visualization. Bound peptide was detected with either HRP-conjugated streptavidin (Abcam) followed by reaction with DAB substrate or Oregon green conjugated neutravidin (Life Technologies). […] Fluorescence quantification was performed using ImageJ software (National Institutes of Health, Bethesda, Md.).
(§3) A cohort of 9 human melanoma biopsy samples obtained from patients treated with anti-PD-1 checkpoint inhibitors (n=6 nivolumab and n=3 pembrolizumab), which were retrospectively correlated with response based on modified RECIST criteria. […] To quantify the degree and magnitude of difference between treated responders and nonresponders, quantitative fluorescent microscopy was performed. […]

[8] = molecular target: Granzyme B (purified, R&D Systems); test: in vitro granzyme B enzyme activity inhibition (cleavage of BOC-Ala-Ala-Asp-SBZL, absorbance at 405 nm)
human granzyme B [9] = molecular target: T3, human granzyme B (human, UniProt P10144 21-247); test: immunohistochemistry and immunofluorescence on human melanoma sections, compared with anti-granzyme B antibody
T3 construct: Endogenous protein in tissue sections, not purified; also called granzyme B in human melanoma tissue
T3 sequence (P10144 21-247 limits assumed): as the sequence (P10144 21-247) above
Procedure: Immunohistochemistry was performed on formalin-fixed paraffin-embedded sections following standard antigen retrieval in citrate buffer. Granzyme B expression was detected with either an anti-Granzyme B antibody (ab5049, Abcam) or a biotinylated and humanized version of GZP (hGZP, see Example 1A). Bound antibody was detected with either HRP-conjugated goat anti-rabbit antibody and reacted with DAB substrate for IHC staining or AlexaFluor 488 goat anti-rabbit or AlexaFluor 594 goat anti-rabbit antibodies (Life Technologies) for immunofluorescent visualization.
Bound peptide was detected with either HRP-conjugated streptavidin (Abcam) followed by reaction with DAB substrate or Oregon green conjugated neutravidin (Life Technologies). […] Fluorescence quantification was performed using ImageJ software (National Institutes of Health, Bethesda, Md.).
as §3

increase of mean TBR from untreated to treated mice (granzyme B [2]; mouse, in vivo): 83% | mean TBR (tumor to left ventricle) by PET, treated mice (granzyme B [2]; mouse, in vivo): 1.69±0.26 | mean TBR (tumor to left ventricle) by PET, untreated mice (granzyme B [2]; mouse, in vivo): 0.93±0.11 | overall sensitivity to predict immunotherapy response (granzyme B [3]; 25 of 27 responding mice high-uptake): 93% | overall specificity to predict immunotherapy response (granzyme B [3]; 34 of 38 non-responding mice low-uptake): 89% | tumor to blood ratio (TBR), injected dose per gram, responders (CT26 tumors [4]; combination therapy (anti-PD-1 and CTLA-4) treated mice, responders (mass<0.8 mg)): 6.06-13.74 | tumor to blood ratio (TBR), injected dose per gram, non-responders (CT26 tumors [4]; combination therapy treated mice, non-responders (mass≥0.8 mg)): 0.95-2.48 | tissue uptake at 1 h ([5]; treated tumors, read-out: tumoral uptake, treated tumors, 1 h): 1.15 %ID/g | tissue uptake at 2 h ([5]; treated tumors, read-out: tumoral uptake, treated tumors, 2 h): 1.02 %ID/g | tissue uptake at 1 h ([5]; untreated control tumors, read-out: tumoral uptake, untreated control tumors, 1 h): 0.7 %ID/g | tissue uptake at 2 h ([5]; untreated control tumors, read-out: tumoral uptake, untreated control tumors, 2 h): 0.55 %ID/g | clearance (CT26 tumors [6]): rapid renal clearance
Molecule: CCC(C)C(NC(=O)CNC(=O)CNC(=O)CNC(=S)Nc1ccc(CC2CN(CC(=O)O)CCN(CC(=O)O)CCN2CC(=O)O)cc1)C(=O)NC(CCC(=O)O)C(=O)NC(Cc1ccccc1)C(=O)NC(C=O)CC(=O)O (stereo not drawn) [^68Ga-NOTA-GP, metal not drawn] (X1-GGGIEFD-aldehyde; configuration not given here)
binding to granzyme B compared to control protein (BSA) (granzyme B [1]): significantly (P<0.05) higher binding to granzyme B than to the control protein (BSA) | correlation of TBR with tumoral GZB expression (Western blot) (granzyme B [2]; P<0.001): significant correlation between uptake and GZB expression | binding/uptake in CT26 cells (CT26 cells): binds granzyme B and is taken up specifically by cancer cells

Ki [8]: 47 nM
B1: NOTA-beta-Ala-Gly-Gly-Ile-Glu-Phe-Asp-CHO (nonradioactive gallium-labeled) (peptide)
peptide: {NOTA}-[βAla]GGIEFD-aldehyde
modifications: also: NOTA complexed with nonradioactive gallium

binding result (human granzyme B [9]): binds
B2: Biotin-beta-Ala-Gly-Gly-Gly-Ile-Glu-Pro-Asp-CHO (peptide)
peptide: Biotin-[βAla]GGGIEPD-aldehyde
SMILES: CC[C@H](C)[C@H](NC(=O)CNC(=O)CNC(=O)CNC(=O)CCNC(=O)CCCC[C@@H]1SC[C@@H]2NC(=O)N[C@@H]21)C(=O)N[C@@H](CCC(=O)O)C(=O)N1CCC[C@H]1C(=O)N[C@H](C=O)CC(=O)O
notes: also called hGZP; biotinylated human granzyme B peptide

The remaining lines, values behind:

Molecule: NOTA-beta A-G-G-G-T-E-A-A-A-A-S-S-C-F-I-E-F-D-CHO ({NOTA}-[βAla]GGGTEAAAASSCFIEFD-aldehyde; SMILES CC[C@H](C)[C@H](NC(=O)[C@H](Cc1ccccc1)NC(=O)[C@H](CS)NC(=O)[C@H](CO)NC(=O)[C@H](CO)NC(=O)[C@H](C)NC(=O)[C@H](C)NC(=O)[C@H](C)NC(=O)[C@H](C)NC(=O)[C@H](CCC(=O)O)NC(=O)[C@@H](NC(=O)CNC(=O)CNC(=O)CNC(=O)CCNC(=O)CN1CCN(CC(=O)O)CCN(CC(=O)O)CC1)[C@@H](C)O)C(=O)N[C@@H](CCC(=O)O)C(=O)N[C@@H](Cc1ccccc1)C(=O)N[C@H](C=O)CC(=O)O) [GZPSERP]
aggregation and liver uptake (tumor): significant aggregation and high liver uptake | tumor to background ratios (tumor): much lower tumor to background ratios

Molecule: NOTA-beta A-PEG27-G-G-G-I-E-F-D ({NOTA-βAla-PEG27′}-GGGIEFD) [GZPPEG]
tumor uptake kinetics (tumor): almost identical tumor uptake kinetics to NOTA-GP

Molecule: {Biotin-βAla}-GGGIEPD-aldehyde [hGZP]
binding to granzyme B in human tissue compared with anti-granzyme B antibody (human granzyme B [7]): highly specific binding of hGZP to human granzyme B
